{"source": "patent US11123350B2", "about": "“Metal delivery agents and therapeutic uses of the same” (THE UNIVERSITY OF MELBOURNE, priority 2006, dated 2021)", "key": {"[1]": {"tested_on": "APP-transfected Chinese Hamster Ovary (APP-CHO) cells", "test": "Cellular copper uptake of Cu-BTSC complexes (ICP-MS)", "assay_type": "cell-based", "protocol": "APP-transfected Chinese Hamster Ovary (APP-CHO) cells were treated with a range of [Cu(BTSC] complexes with dialkyl backbones at 1-50 μM for 6 hr in serum-free culture medium. Cells were washed twice with phosphate buffered saline (PBS) and cells scraped into fresh PBS and pelleted at 10,000 rpm in a microfuge for 5 min. Supernatant was discarded and cell pellets frozen at −70° C. until metal levels were determined by inductively-coupled plasma mass spectrometry (ICP-MS) at the Department of Pathology, University of Melbourne."}, "[2]": {"tested_on": "M17 human neuroblastoma cells", "test": "Ionophore assay (metal uptake, ICPMS)", "assay_type": "cell-based", "conditions": "5 hours at 37° C., reported versus internal control Clioquinol", "protocol": "M17 human neuroblastoma cells were plated out on 6 well plates and left overnight. Enough cells were added to give approximately 70% confluent the following day of the experiment.\nThe test cells were incubated in 1 ml of media and compound mix for 5 hours at 37° C. At the end of the incubation the media was removed with a vacuum aspirator and 1 ml of PBS added to dislodge the cells. Cells are then put into Eppendorf tubes and pelleted. The PBS is removed and the remaining cell pellets are frozen at −20° C.\nCell pellets of similar levels are placed in 1.5 ml microfuge tubes. To each tube was added 50 μl of concentrated Nitric Acid (Aristar, BDH) to each cell pellet and allowed each cell pellet was allowed to digest overnight. The samples were heated for 20 min at 90° C. to complete the digestion. The volume of each sample was reduced to ˜45 ? l after digestion. To each was added 1 ml of the 1% Nitric Acid diluent. Measurements were made using a Varian UltraMass ICPMS instrument under operating conditions suitable for routine multi-element analysis.\nThe instrument was calibrated using Blank, 10, 50 and 100 ppb of a certified multi-element ICPMS standard solution (ICP-MS-CAI2-1, Accustandard) for Fe, Cu and Zn in 1% nitric acid. Used an certified internal standard solution containing 100 ppb Yttrium (Y 89) as an internal control (ICP-MS-IS-MIX1-1, Accustandard)."}, "[3]": {"tested_on": "mice with 6-OHDA lesion of the SNpc", "test": "6-OHDA lesion Parkinson's disease model, amphetamine-induced rotation", "assay_type": "in vivo", "conditions": "oral gavage 10 or 30 mg/kg daily, 7 days pre-lesion and 14 days post lesion"}, "[4]": {"conditions": "cited from earlier work"}, "WT cells": {"tested_on": "WT cells", "test": "Dopamine induced cell death, WT cells (MTT)", "assay_type": "cell-based", "protocol": "A series of trials were conducted in which the effect of CuGTSM on inhibiting Dopamine induced cell death were conducted on WT cells and A30P cells. The protocol used was as follows.\nThe cell line was maintained in OPTI-MEM (Gibco) supplemented with 10% fetal calf serum (FCS), Non-essential amino acids, sodium pyruvate and Penn/Strep. Cells were incubated at 37° C. in a humidified atmosphere of 95% air and 5% CO2. Cell assays were plated out into 48 well culture plates at 4×10^4 cells per well. Cells were left to settle overnight then incubated with drugs for 24h prior to being subjected to MTT assays for cell viability.\nThe viability of cells was assessed using an MTT assay. […] The mixture of media and reagents e.g. Dopamine was aspirated off and media containing 5 mg/mI MTT is added and the plate incubated for 1 h at 37° C. The remaining media/MTT solution is aspirated off and the cells were then solubilized with DMSO. The 48 well plate is then read at 595 nm on a plate reader.\nIn essence a series of WT cells and A30P cells were treated with a control, Dopamine, CuGTSM, Cu ATSM, and combinations of Dopamine and CuGTSM, and dopamine and CuATSM at various concentrations to determine the ability of the compound to act as an anti-oxidant and […] cell death. The results are shown in table 15 (WT cells) and Table 16 (A30P cells)"}, "EAE mouse model": {"tested_on": "EAE mouse model", "test": "Experimental autoimmune encephalomyelitis (EAE) mouse model of MS", "assay_type": "in vivo", "conditions": "daily oral treatment", "description": "(§1) I. Cu(ATSM) is protective in mouse models of MS. The two most widely used mouse models of MS are the experimental autoimmune encephalomyelitis (EAE) and cuprizone models. Some features of progressive MS are evident in each model. Administration of Cu(ATSM) to these mice (daily oral treatment) established that: (a) Cu(ATSM) improved body weight changes and neurological symptoms evident in the EAE mouse model; (b) Cu(ATSM) improved body weight changes evident in the cuprizone mouse model; and (c) treating with Cu(ATSM) improves myelination in the corpus callosum of the cuprizone mouse model."}, "G93A-SOD1 mice": {"tested_on": "G93A-SOD1 mice", "test": "G93A SOD1 ALS mice: survival and onset of paralysis"}, "cuprizone mouse model": {"tested_on": "cuprizone mouse model", "test": "Cuprizone mouse model of MS", "assay_type": "in vivo", "conditions": "daily oral treatment", "description": "as §1"}}, "data": [{"smiles": "CN=C([S-])N/N=C(C)/C(C)=N/NC([S-])=NC.[64Cu+2]", "note": "[Complex A2, copper(II)diacetylbis(N(4)-methylthiosemicarbazone)]", "values": [{"measurement": "fold increase in cellular copper levels compared to untreated control cells", "setting": "[1]; 1-50 μM, 6 hr", "value": "177±9", "unit": "fold"}, {"measurement": "cellular Copper level", "setting": "[1]; treated, control 4.5", "value": 796, "unit": "ng/mg protein"}, {"measurement": "Ionophore (% uptake of metal at 10 μm)", "setting": "[2]", "value": 157.1, "unit": "%"}, {"measurement": "amphetamine-induced rotation versus control group", "setting": "[3]", "value": "performed better"}, {"measurement": "reduction potential E1/2", "setting": "[4]; Cu(II) to Cu(I)", "value": "−0.59", "unit": "V"}, {"measurement": "Cu(II)/Cu(I) reduction potential, harder to reduce than [Cu(GTSM)]", "setting": "[4]; difference to [Cu(GTSM)]", "value": "~160", "unit": "mV"}, {"measurement": "% recovery", "setting": "WT cells; Dopamine 500 μm + complex 0.01 μM", "value": 64.28, "unit": "%"}, {"measurement": "% recovery", "setting": "WT cells; Dopamine 500 μm + complex 0.1 μM", "value": 103.13, "unit": "%"}, {"measurement": "body weight changes in the EAE mouse model", "setting": "EAE mouse model", "value": "improved"}, {"measurement": "neurological symptoms in the EAE mouse model", "setting": "EAE mouse model", "value": "improved"}, {"measurement": "onset of paralysis in ALS mice", "setting": "G93A-SOD1 mice; 30 mg/kg gavage once daily (5 days/week)", "value": "significantly delays"}, {"measurement": "Increased Life Span", "setting": "G93A-SOD1 mice; G93A-SOD1 mice, present results", "value": "31 to 33", "unit": "days"}, {"measurement": "body weight changes in the cuprizone mouse model", "setting": "cuprizone mouse model", "value": "improved"}, {"measurement": "myelination in the corpus callosum", "setting": "cuprizone mouse model", "value": "improves"}]}]}
